Experiments:
Type in all cases: in vivo
[1] = tested on: mice; assay: Inverted Screen Test to assess coordination; conditions: doses up to 100 mg/kg PO, immediately following the TST, 1-minute trial
Method: Immediately following the TST, mice were also tested in the Inverted Screen Test to assess coordination. Animals were given a 1-minute trial in which they had to climb to the top of the inverted screen or to simply hang on and not fall off.

[2] = tested on: Wistar rats; assay: Water-lick (Vogel) Conflict Test in rats; conditions: for Percent of Animals Tested With >20 Shock Episodes / Mean Shock Episodes (1 mA): pretreatment 120 minutes; for Mean Shock Episodes (1 mA): Mean ± SEM
Method: In each experiment, naive adult male Wistar rats between 170 to 200 g were randomly divided into groups (N=10-30/group) and deprived of water for 48 hours prior to testing. Food was available on Day 1 and removed 24 hours prior to test Day 2.
Apparatus: The modular operant test cage (Coulbourn Instruments) measures 10.25×12×12 in. The test chambers feature 3 modular bays on each side of the cage for a total of 6 bays. A module optical lickometer is mounted on one side of the chamber 5 cm above the grid floor. The lickometer is used to measure licking-drinking from a water bottle mounted outside the test chamber. A photo beam is piped via glass rods to the tip of the drink tube across a gap at the end of the tube. The animals tongue breaks the beam on each lick. The front and back of the test chamber is made of clear Plexiglas. The front door is covered to reduce distractions from inside the test room. The back of the test chamber is facing a wall, away from the flow of traffic within the testing room and remains uncovered to provide the opportunity for observations during testing. Shocks are delivered using a (Coulbourn) programmable universal shocker calibrated to deliver a 1 mA shock for 1 second through the drink tube.
Procedure: On Day 1, after a 24-hour water deprivation, experimental subjects were placed into the test chambers and allowed to drink unpunished. Drinking was limited to 500 responses or approximately 5 mL of water during a 10 minute session. Immediately following the unpunished drinking session, rats were returned to their home cages, deprived of water for an additional 24 hours and was food deprived. […] After the pretreatment period rats were placed into a test chamber and allowed to drink for 10 minutes. After every 10 licks, rats received a 1-second shock (1 mA) through the drink tube. Thus, a conflict or anxiety-producing situation exists. Rats are motivated to drink; however, they are inhibited by the shock. Anxiety is reflected by the low amounts of drinking. Standard anxiolytic drugs produce effects that allow rats to overcome this behavioral inhibition and drink despite the shock.
All data were analyzed using a Kruskal-Wallis one Way Analysis of Variance on Ranks and Mann-Whitney Rank Sum Tests.
Quantitative Analysis: A quantitative analysis represents the percentage of subjects within a treatment group that receives >20 shock episodes during a test session. This number provides a quantitative comparison regarding the distribution of the responses.
Compound A was dissolved in water and tested orally as a solution from 0.3 to 100 mg/kg in rats and 3 to 300 mg/kg in mice. Dosages are expressed as the active moiety and were administered in a volume of 1 mL/kg for rats and 10 mL/kg for mice.

[3] = tested on: Sprague-Dawley rats; assay: Rat model of footpad tactile allodynia from prior injection of acid into the gastrocnemius muscle; conditions: for Mean Paw Withdrawal Threshold before dose (g ± S.E.M.): after acid injection
Method: A rat model of persistent mechanical allodynia has been developed that is consistent with the muscle tenderness found in these patients. […] This model was utilized to evaluate compound A for its ability to inhibit allodynia.
On Day 0, male Sprague-Dawley rats (˜200 g body weight) in their dark cycle were placed in suspended wire-bottom cages and allowed to acclimate for 0.5 hours. […] Von Frey hairs were applied to the plantar surface for up to 6 seconds, and a flinching of the paw during that time frame was considered a positive response. After assessment, the right gastrocnemius muscle was shaved, swabbed with alcohol, and injected with 0.1 mL of 0.9% NaCl solution acidified to pH 4 with HCl. The injection was repeated on Day 5. Animals were manipulated with a dynamic plantar aesthesiometer (Ugo Basile, Comerio-Varese, Italy) on Days 6, 7, and 8 to facilitate induction of the allodynia. To screen the rats for the development of allodynia, the 15.1 g Von Frey hair was applied to the ipsilateral paw on Day 11. Positive responders from that test were included in the compound evaluation study. On Day 12 (the day of peak allodynia), animals were assigned into treatment groups, and then their ipsilateral paw withdrawal thresholds were determined to establish the allodynia (reduction in paw withdrawal threshold) compared to baseline values. Rats were then orally dosed with 10 mL/kg vehicle (0.5% hydroxypropyl-methylcellulose/0.2% Tween 80) or the indicated dose of compound A. Paw withdrawal thresholds were reassessed by Von Frey hairs in blinded fashion 2 hours after dosing for the dose-response study, and 2, 5, 8, and 24 hours after dosing in the time course experiment. The inhibition of allodynia was determined for each animal by dividing the increase in paw withdrawal threshold after treatment by the difference between baseline and pretreatment paw withdrawal values. This fraction was then converted to percent inhibition by multiplying by 100.

[4] = doses 3× and 10× the Vogel MED (10 and 30 mg/kg)
[5] = oral, 2 hour pretreatment, rats
[6] = 10 mg/kg oral, 2 hours after treatment (Table II)
[7] = 10 mg/kg oral, 2 hr after dose (Table I)
[8] = 10 mg/kg oral, 5 hours after treatment
[9] = 10 mg/kg oral, 8 hours after treatment
[10] = 10 mg/kg oral, 24 hours after treatment

`C[C@H]1CC(CN)(CC(=O)O)C[C@@H]1C` [Compound A, (3S, 4S)-(1-Aminomethyl-3,4-dimethyl-cyclopentyl)-acetic acid] was tested. Which Screen fall-off [1] did it give?
The Screen fall-off was “did not cause animals to fall off”.

What about the “Percent of Animals Tested With >20 Shock Episodes” value (“Percent” for short) ([2]; 0.3 mg/kg PO) of the same molecule?
The value was 20%.

And the “Mean Shock Episodes (1 mA)” value ([2]; 0.3 mg/kg PO)?
Its value is 16.5 ± 8.7.

And the “Percent” value ([2]; 1 mg/kg PO)?
Its value is 10%.

What about the “Mean Shock Episodes (1 mA)” value ([2]; 1 mg/kg PO) of the same molecule?
The value was 11.7 ± 4.2.

And the “Percent” value ([2]; 3 mg/kg PO)?
Its value is 17%.

And the “Mean Shock Episodes (1 mA)” value ([2]; 3 mg/kg PO)?
The value was 16.7 ± 4.3.

What about the “Shock episodes (time-course)” value ([2]; 3 mg/kg, 1 hr post treatment) of the same molecule?
Its value is 38.8 ± 12.2.

And the “Shock episodes (time-course)” value ([2]; 3 mg/kg, 2 hr post treatment)?
Its value is 55.7 ± 12.7.

What about the “Shock episodes (time-course)” value ([2]; 3 mg/kg, 4 hr post treatment) of the same molecule?
The value was 38.4 ± 12.2.

What about the “Shock episodes (time-course)” value ([2]; 3 mg/kg, 6 hr post treatment) of the same molecule?
The value was 44.7 ± 13.3.

What about the “Shock episodes (time-course)” value ([2]; 3 mg/kg, 8 hr post treatment) of the same molecule?
Its value is 7.7 ± 1.2.

What about the “Percent” value ([2]; 10 mg/kg PO) of the same molecule?
The value was 43%.

And the “Mean Shock Episodes (1 mA)” value ([2]; 10 mg/kg PO)?
Its value is 33.8 ± 6.2.

And the “Shock episodes (time-course)” value ([2]; 10 mg/kg, 30 min. post treatment)?
The value was 14.1 ± 3.1.

What about the “Shock episodes (time-course)” value ([2]; 10 mg/kg, 1 hr post treatment) of the same molecule?
Its value is 28.2 ± 7.6.

And the “Shock episodes (time-course)” value ([2]; 10 mg/kg, 2 hr post treatment)?
The value was 29.6 ± 8.0.

What about the “Shock episodes (time-course)” value ([2]; 10 mg/kg, 4 hr post treatment) of the same molecule?
The value was 47.7 ± 11.7.

And the “Shock episodes (time-course)” value ([2]; 10 mg/kg, 6 hr post treatment)?
The value was 38.4 ± 13.2.

What about the “Percent” value ([2]; 30 mg/kg PO) of the same molecule?
Its value is 67%.

And the “Mean Shock Episodes (1 mA)” value ([2]; 30 mg/kg PO)?
Its value is 46.3 ± 7.6.

And the “Shock episodes (time-course)” value ([2]; 30 mg/kg, 30 min. post treatment)?
Its value is 35.8 ± 12.6.

What about the “Shock episodes (time-course)” value ([2]; 30 mg/kg, 1 hr post treatment) of the same molecule?
The value was 93.3 ± 12.1.

And the “Shock episodes (time-course)” value ([2]; 30 mg/kg, 2 hr post treatment)?
The value was 88.4 ± 7.4.

What about the “Shock episodes (time-course)” value ([2]; 30 mg/kg, 4 hr post treatment) of the same molecule?
The value was 73.5 ± 12.2.

And the “Shock episodes (time-course)” value ([2]; 30 mg/kg, 6 hr post treatment)?
The value was 97.4 ± 11.1.

And the “Percent” value ([2]; 100 mg/kg PO)?
Its value is 90%.

What about the “Mean Shock Episodes (1 mA)” value ([2]; 100 mg/kg PO) of the same molecule?
The value was 52.8 ± 10.9.

What about the “Time of peak activity after treatment” value ([2]; 10 and 30 mg/kg respectively) of the same molecule?
Its value is 4 to 6 h.

What about the Activity maintained through ([2]; MED dose 3 mg/kg) of the same molecule?
The Activity maintained through was 6 h.

And the “Onset of activity after treatment” value ([2]; MED dose 3 mg/kg)?
Its value is 2 h.

What about the “Time of peak activity” value ([2]; MED dose 3 mg/kg) of the same molecule?
Its value is 2 h.

And the Activity maintained through [2, 4]?
Its Activity maintained through is 6 h.

And the “Onset of activity after treatment” value [2, 4]?
The value was 1 h.

What about the “Dose of maximal anti-conflict effects” value [2, 5] of the same molecule?
Its value is 100 mg/kg.

What about the “MED for anti-conflict activity” value [2, 5] of the same molecule?
Its value is 3 mg/kg.

What about the “Mean Paw Withdrawal Threshold before dose (g ± S.E.M.)” value ([3]; 3 mg/kg group, before oral dose) of the same molecule?
Its value is 6.3 ± 0.8 g.

And the “Mean % Inhibition of Allodynia” value ([3]; 3 mg/kg oral, 2 hr after dose)?
Its value is 33%.

What about the “Mean Paw Withdrawal Threshold 2 hr after dose (g ± S.E.M.)” value ([3]; 3 mg/kg oral, 2 hr after dose) of the same molecule?
Its value is 11.4 ± 1.7 g.

And the “Mean Paw Withdrawal Threshold (g ± S.E.M.)” value ([3]; 10 mg/kg group, Prior to Treatment (Table II))?
The value was 6.5 ± 0.9 g.

What about the “Mean Paw Withdrawal Threshold before dose (g ± S.E.M.)” value ([3]; 10 mg/kg group, before oral dose (Table I)) of the same molecule?
The value was 6.2 ± 1.0 g.

And the “Efficacy sustained throughout observation period after dosing” value ([3]; 10 mg/kg oral)?
The value was no less than 24 h.

What about the “Mean % Inhibition of Allodynia” value [3, 6] of the same molecule?
Its value is 60% ± 10.

What about the “Mean Paw Withdrawal Threshold after treatment (g ± S.E.M.)” value [3, 6] of the same molecule?
The value was 16.0 ± 1.4 g.

What about the “Mean % Inhibition of Allodynia” value [3, 7] of the same molecule?
Its value is 72%.

And the “Mean Paw Withdrawal Threshold 2 hr after dose (g ± S.E.M.)” value [3, 7]?
The value was 17.4 ± 1.5 g.

What about the “Mean % Inhibition of Allodynia” value [3, 8] of the same molecule?
Its value is 62% ± 10.

What about the “Mean Paw Withdrawal Threshold after treatment (g ± S.E.M.)” value [3, 8] of the same molecule?
Its value is 15.2 ± 1.8 g.

And the “Mean % Inhibition of Allodynia” value [3, 9]?
Its value is 31% ± 12.

And the “Mean Paw Withdrawal Threshold after treatment (g ± S.E.M.)” value [3, 9]?
Its value is 9.9 ± 2.0 g.

And the “Mean % Inhibition of Allodynia” value [3, 10]?
The value was 46% ± 17.

What about the “Mean Paw Withdrawal Threshold after treatment (g ± S.E.M.)” value [3, 10] of the same molecule?
The value was 13.3 ± 2.8 g.

And the “Minimum effective dose for attenuating allodynia” value ([3]; oral, 2 hours after dosing)?
The value was 10 mg/kg.

Source: US20040180959A1, “Gabapentin analogues for fibromy algia and concomitant disorders” (priority 2002, published 2004)
